{"source": "patent US5202348A", "about": "“Thiarubrine antifungal agents” (The University of British Columbia, priority 1990, dated 1993)", "key": {"[1]": {"test_system": "Candida albicans, Aspergillus fumigatus and Cryptococcus neoformans", "assay": "Antifungal activity (general statement)", "type": "cell-based", "settings": "extremely low concentrations"}, "Zanthomonas maltophilia": {"test_system": "Zanthomonas maltophilia", "assay": "Minimal inhibitory concentration, agar dilution method", "type": "cell-based", "settings": "21 h; No. 15, strain 3E6", "description": "(§1) Results were obtained by agar dilution method. Mueller Hinton agar plates (pH - 7.4) with different doses of ThD were inoculated with 10^4 cfu/spot and incubated 21 hours at 34°. MIC is the lowest concentration with no growth."}, "Cryptococcus neoformans": {"test_system": "Cryptococcus neoformans", "assay": "Minimal inhibitory concentration, agar dilution method", "type": "cell-based", "settings": "21 h, No. 9, F548", "description": "as §1"}, "Klebsiella pneumoniae": {"test_system": "Klebsiella pneumoniae", "assay": "Minimal inhibitory concentration, agar dilution method", "type": "cell-based", "settings": "ATCC33495, 21 h, No. 7, ATCC 33495", "description": "as §1"}, "Listeria monocytogenes": {"test_system": "Listeria monocytogenes", "assay": "Minimal inhibitory concentration, agar dilution method", "type": "cell-based", "description": "as §1"}, "Enterobacter cloacoe": {"test_system": "Enterobacter cloacoe", "assay": "Minimal inhibitory concentration, agar dilution method", "type": "cell-based", "description": "as §1"}, "Streptococcus faecalis": {"test_system": "Streptococcus faecalis", "assay": "Minimal inhibitory concentration, agar dilution method", "type": "cell-based", "settings": "Enterococcus faecalis, ATCC29212, 21 h; No. 2, ATCC 29212", "description": "as §1"}, "Staphylococcus aureus": {"test_system": "Staphylococcus aureus", "assay": "Minimal inhibitory concentration, agar dilution method", "type": "cell-based", "settings": "for MIC: Staphylococcus aureus, read-out: Minimal Inhibitory Concentration", "description": "as §1"}, "Escherichia coli": {"test_system": "Escherichia coli", "assay": "Minimal inhibitory concentration, agar dilution method", "type": "cell-based", "settings": "ATCC25992, 21 h, read-out: Minimal Inhibitory Concentration", "description": "as §1"}, "Serratia marscenes": {"test_system": "Serratia marscenes", "assay": "Minimal inhibitory concentration, agar dilution method", "type": "cell-based", "settings": "21 h, No. 27, strain 3A3", "description": "as §1"}, "Staphylococcus epidermis": {"test_system": "Staphylococcus epidermis", "assay": "Minimal inhibitory concentration, agar dilution method", "type": "cell-based", "settings": "ATCC29972, 21 h, No. 8, ATCC 29972", "description": "as §1"}, "Enterococcus faecalis": {"test_system": "Enterococcus faecalis", "assay": "Minimal inhibitory concentration, agar dilution method", "type": "cell-based", "settings": "21 h", "description": "as §1"}, "[2]": {"test_system": "Enterococcus (gentamycin res.)", "assay": "Minimal inhibitory concentration, agar dilution method", "type": "cell-based", "settings": "21 h, read-out: Minimal Inhibitory Concentration", "description": "as §1"}, "Candida": {"test_system": "Candida", "assay": "Minimal inhibitory concentration, agar dilution method", "type": "cell-based", "settings": "21 h", "description": "as §1"}, "Candida pseudotropicalis": {"test_system": "Candida pseudotropicalis", "assay": "Minimal inhibitory concentration, agar dilution method", "type": "cell-based", "settings": "Kluyveromyces marxianus, 21 h; No. 10", "description": "as §1"}, "Enterobacter sp.": {"test_system": "Enterobacter sp.", "assay": "Minimal inhibitory concentration, agar dilution method", "type": "cell-based", "settings": "21 h, No. 26, strain 9E7", "description": "as §1"}, "Enterobacter aerogenes": {"test_system": "Enterobacter aerogenes", "assay": "Minimal inhibitory concentration, agar dilution method", "type": "cell-based", "settings": "Klebsiella aerogenes, ATCC35029, 21 h; No. 6, ATCC 35029", "description": "as §1"}, "Pseudomonas aeruginosa": {"test_system": "Pseudomonas aeruginosa", "assay": "Minimal inhibitory concentration, agar dilution method", "type": "cell-based", "description": "as §1"}, "Acinetobacter": {"test_system": "Acinetobacter", "assay": "Minimal inhibitory concentration, agar dilution method", "type": "cell-based", "description": "as §1"}, "[3]": {"assay": "Growth inhibition of WEHI-3 during 24 hours exposure", "type": "cell-based, Mouse", "settings": "mouse, wehi-3 cells; Table 2; read-out: Toxicity Index, LC50 WEHI-3 / LC50 C. albicans", "description": "(§2) WEHl3 = Mouse myelomonocyte\n(§3) Doses inhibiting growth in 50% were estimated by plotting concentration o\n(§4) a logarithmic scale and percent of growth inhibition for 24 hours exposur\n(§5) on a probability scale."}, "WEHI-3": {"test_system": "WEHI-3", "assay": "Growth inhibition of WEHI-3 during 24 hours exposure", "type": "cell-based, Mouse", "settings": "Mus musculus, WEHI-3; 24 hours exposure; Table 1; read-out: Concentration causing 50% growth inhibition", "description": "as §2, §3, §4, §5"}}, "note": "Read-outs that look alike come from different tables or passages of the source."}
{"smiles": "CC#CC1=CC=C(C#CC#CC2CO2)SS1", "note": "(centres unmarked) [Thiarubrine D]", "values": [{"measurement": "Antifungal activity", "setting": "[1]", "value": "very high antifungal activity"}, {"measurement": "MIC", "setting": "Zanthomonas maltophilia", "value": 10, "unit": "µg/mL"}, {"measurement": "MIC", "setting": "Cryptococcus neoformans", "value": 0.064, "unit": "µg/mL"}, {"measurement": "MIC", "setting": "Klebsiella pneumoniae", "value": 10, "unit": "µg/mL"}, {"measurement": "MIC", "setting": "Listeria monocytogenes; Listeria monocytogenes, 21 h, No. 28, strain 106", "value": 10, "unit": "µg/mL"}, {"measurement": "Minimal Inhibitory Concentration", "setting": "Listeria monocytogenes; No. 29, strain 301", "value": "10,000 ng/ml"}, {"measurement": "MIC", "setting": "Enterobacter cloacoe; Enterobacter, 21 h, No. 19, strain 1A5", "value": 1, "unit": "µg/mL"}, {"measurement": "Minimal Inhibitory Concentration", "setting": "Enterobacter cloacoe; No. 20, strain 9E5", "value": "1,000 ng/ml"}, {"measurement": "MIC", "setting": "Streptococcus faecalis", "value": 10, "unit": "µg/mL"}, {"measurement": "Minimal Inhibitory Concentration", "setting": "Staphylococcus aureus; No. 16, strain B4287 (metacylliu res.)", "value": "10,000 ng/ml"}, {"measurement": "MIC", "setting": "Staphylococcus aureus; 21 h", "value": 10, "unit": "µg/mL"}, {"measurement": "MIC", "setting": "Staphylococcus aureus; ATCC25923, 21 h, No. 1, ATCC 25923", "value": 10, "unit": "µg/mL"}, {"measurement": "MIC", "setting": "Staphylococcus aureus; ATCC29213, 21 h, No. 5, ATCC 29213", "value": 10, "unit": "µg/mL"}, {"measurement": "MIC", "setting": "Escherichia coli", "value": 1, "unit": "µg/mL"}, {"measurement": "MIC", "setting": "Serratia marscenes", "value": 10, "unit": "µg/mL"}, {"measurement": "MIC", "setting": "Staphylococcus epidermis", "value": 10, "unit": "µg/mL"}, {"measurement": "MIC", "setting": "Enterococcus faecalis; No. 30, strain 1A3", "value": 10, "unit": "µg/mL"}, {"measurement": "MIC", "setting": "Enterococcus faecalis; No. 35, strain 207", "value": 1, "unit": "µg/mL"}, {"measurement": "MIC", "setting": "[2]", "value": 0.01, "unit": "µg/mL"}, {"measurement": "MIC", "setting": "Candida; No. 22, strain 01", "value": 0.016, "unit": "µg/mL"}, {"measurement": "MIC", "setting": "Candida; No. 23, strain 02", "value": 0.016, "unit": "µg/mL"}, {"measurement": "MIC", "setting": "Candida; No. 24, strain 03", "value": 0.064, "unit": "µg/mL"}, {"measurement": "MIC", "setting": "Candida; No. 25, strain R4197", "value": 0.016, "unit": "µg/mL"}, {"measurement": "MIC", "setting": "Candida; No. 32, strain F617", "value": 0.008, "unit": "µg/mL"}, {"measurement": "MIC", "setting": "Candida pseudotropicalis", "value": 10, "unit": "µg/mL"}, {"measurement": "MIC", "setting": "Enterobacter sp.", "value": 10, "unit": "µg/mL"}, {"measurement": "MIC", "setting": "Enterobacter aerogenes", "value": 10, "unit": "µg/mL"}, {"measurement": "MIC", "setting": "Pseudomonas aeruginosa; 21 h, No. 12, strain 141", "value": "> 10", "unit": "µg/mL"}, {"measurement": "MIC", "setting": "Pseudomonas aeruginosa; 21 h, No. 13, strain 205", "value": "> 10", "unit": "µg/mL"}, {"measurement": "MIC", "setting": "Pseudomonas aeruginosa; 21 h, No. 14, strain 3E5", "value": 10, "unit": "µg/mL"}, {"measurement": "MIC", "setting": "Pseudomonas aeruginosa; ATCC27853, 21 h, No. 4, ATCC 27853", "value": 10, "unit": "µg/mL"}, {"measurement": "MIC", "setting": "Acinetobacter; Acinetobacter, 21 h, No. 17, strain C42", "value": 1, "unit": "µg/mL"}, {"measurement": "Minimal Inhibitory Concentration", "setting": "Acinetobacter; No. 18, strain 6C10", "value": "1,000 ng/ml"}, {"measurement": "selectivity ratio at 24 h", "setting": "[3]", "value": 83}, {"measurement": "IC50", "setting": "WEHI-3", "value": 0.05, "unit": "µg/mL"}]}
